Measurements reported in US20240270762A1, “PENICILLIN-BINDING PROTEIN INHIBITORS” (priority 2021, published 2024).
In brackets after ≈: the same amount, converted by molar mass. Like-named read-outs stand apart in the source and are kept apart here.

What was measured:
[1] = test system: A. baumannii CDC-0036; experiment: microbe, parasite or virus in culture; type: cell-based; details: Acinetobacter baumannii
[2] = test system: P. aeruginosa CDC-0110; experiment: microbe, parasite or virus in culture; type: cell-based; details: Pseudomonas aeruginosa, CDC0110, read-out: Minimum inhibitory concentration, P. aeruginosa CDC-0110
[3] = test system: P. aeruginosa CDC-0095; experiment: microbe, parasite or virus in culture; type: cell-based; details: Pseudomonas aeruginosa, CDC0095, read-out: Minimum inhibitory concentration, P. aeruginosa CDC-0095
[4] = test system: A. baumannii ATCC 19606; experiment: microbe, parasite or virus in culture; type: cell-based; details: Acinetobacter baumannii
[5] = molecular target: T1, PBP3 from Pseudomonas aeruginosa (PAO1) (Pseudomonas aeruginosa, UniProt G3XD46); experiment: Bocillin-FL fluorescence polarization competition binding, P. aeruginosa PBP3; details: Binding affinity to P. aeruginosa PBP3; fluorescence polarization competition binding assay using Bocillin-FL; read-out: P. aeruginosa PBP3 Potency
T1 construct: made in house
T1 sequence (G3XD46 whole entry): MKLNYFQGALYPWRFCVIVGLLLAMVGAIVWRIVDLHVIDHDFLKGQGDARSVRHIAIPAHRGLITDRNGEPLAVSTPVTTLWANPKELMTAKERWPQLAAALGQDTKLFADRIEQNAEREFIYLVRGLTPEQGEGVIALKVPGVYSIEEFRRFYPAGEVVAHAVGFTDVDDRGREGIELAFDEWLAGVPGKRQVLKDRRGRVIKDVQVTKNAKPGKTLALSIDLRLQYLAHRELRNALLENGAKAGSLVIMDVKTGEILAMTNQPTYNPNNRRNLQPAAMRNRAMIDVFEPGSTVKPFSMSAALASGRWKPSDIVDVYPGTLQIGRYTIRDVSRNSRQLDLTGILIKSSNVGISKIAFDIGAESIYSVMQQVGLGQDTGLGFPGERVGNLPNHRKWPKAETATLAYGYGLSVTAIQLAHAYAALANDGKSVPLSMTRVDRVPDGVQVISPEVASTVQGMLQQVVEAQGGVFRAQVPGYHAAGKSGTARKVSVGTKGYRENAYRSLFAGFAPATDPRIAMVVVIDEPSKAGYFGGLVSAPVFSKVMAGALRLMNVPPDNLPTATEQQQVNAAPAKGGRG
Summary of the method: (§1)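 Purified PBPs pre-incubated with inhibitor (E. coli PBP3 1.5 μM, 30 min; P. aeruginosa PBP3 0.75 μM, A. baumannii PBP1a 1 μM and PBP3 0.2 μM, 15 min), then Bocillin-FL 0.1 μM (0.05 μM for PBP1a) added; FP read up to 60 min. EC50 = concentration halving bound Bocillin-FL.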

[6] = molecular target: T2, PBP3 from Acinetobacter baumannii (ATCC 19606) (Acinetobacter baumannii, UniProt A0ABX6CK25); experiment: Bocillin-FL fluorescence polarization competition binding, A. baumannii PBP3; details: fluorescence polarization competition binding assay using Bocillin-FL; read-out: A. baumannii PBP3 Potency
T2 sequence (A0ABX6CK25 64-610): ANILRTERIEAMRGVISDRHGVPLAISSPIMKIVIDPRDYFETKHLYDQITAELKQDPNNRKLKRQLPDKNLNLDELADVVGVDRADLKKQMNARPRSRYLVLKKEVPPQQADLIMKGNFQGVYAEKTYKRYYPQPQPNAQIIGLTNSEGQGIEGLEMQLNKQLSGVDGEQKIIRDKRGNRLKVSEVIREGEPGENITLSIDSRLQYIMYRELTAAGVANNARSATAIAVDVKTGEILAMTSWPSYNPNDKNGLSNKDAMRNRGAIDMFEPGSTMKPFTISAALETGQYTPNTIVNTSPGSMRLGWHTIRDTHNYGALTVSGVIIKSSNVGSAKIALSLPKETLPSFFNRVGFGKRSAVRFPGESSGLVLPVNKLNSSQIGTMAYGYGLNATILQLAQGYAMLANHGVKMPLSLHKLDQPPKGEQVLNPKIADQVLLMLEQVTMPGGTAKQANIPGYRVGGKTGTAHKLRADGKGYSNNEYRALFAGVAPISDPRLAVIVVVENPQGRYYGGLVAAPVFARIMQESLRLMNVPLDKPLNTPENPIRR
Summary of the method: as §1

[7] = test system: A. baumannii CDC-0033; experiment: microbe, parasite or virus in culture; type: cell-based; details: Acinetobacter baumannii
[8] = test system: B. thailandensis ATCC 700388; experiment: microbe, parasite or virus in culture; type: cell-based; details: Burkholderia thailandensis, ATCC700388, read-out: Minimum inhibitory concentration (MIC), B. thailandensis ATCC 700388
[9] = test system: P. aeruginosa ATCC 35151; experiment: microbe, parasite or virus in culture; type: cell-based; details: Pseudomonas aeruginosa, ATCC35151, read-out: Minimum inhibitory concentration, P. aeruginosa ATCC 35151
[10] = test system: A. baumannii ATCC 17978; experiment: microbe, parasite or virus in culture; type: cell-based; details: Acinetobacter baumannii
[11] = CDC0036, read-out: MIC, A. baumannii CDC-0036
[12] = ATCC19606, read-out: MIC, A. baumannii ATCC 19606
[13] = CDC0033, read-out: MIC, A. baumannii CDC-0033
[14] = ATCC17978, read-out: MIC, A. baumannii ATCC 17978

Structure (SMILES) | MIC [1, 11] | MIC [2] | MIC [3] | MIC [4, 12] | IC50 [5] | IC50 [6] | MIC [7, 13] | MIC [8] | MIC [9] | MIC [10, 14] | MIC ([1]; CDC0036, read-out: Minimum inhibitory concentration (MIC), A. baumannii CDC-0036) | MIC ([4]; ATCC19606, read-out: Minimum inhibitory concentration (MIC), A. baumannii ATCC 19606) | MIC ([7]; CDC0033, read-out: Minimum inhibitory concentration (MIC), A. baumannii CDC-0033) | MIC ([10]; ATCC17978, read-out: Minimum inhibitory concentration (MIC), A. baumannii ATCC 17978)
O=C(O)c1c(F)ccc2c1OB(O)[C@@H](NC(=O)[C@H](NC(=O)N1CCN(C3CCN(C(=O)c4cccc(O)c4Cl)CC3)C1=O)c1cc(F)c(O)c(O)c1Cl)C2 (single isomer, unassigned) [Example 432] | 2 to 4 µg/mL (≈ 2.52 to 5.05 µM) | < 1 µg/mL | < 1 µg/mL | < 1 µg/mL | < 10 µM | < 10 µM | 2 to 4 µg/mL (≈ 2.52 to 5.05 µM) | < 1 µg/mL | < 1 µg/mL | < 1 µg/mL | – | – | – | –
O=C(O)c1c(F)ccc2c1OB(O)[C@@H](NC(=O)[C@H](NC(=O)N1CCN(C3CCN(C(=O)Nc4c(F)ccc(O)c4F)CC3)C1=O)c1cc(F)c(O)c(O)c1Cl)C2 (single isomer, unassigned) [Example 454] | < 1 µg/mL | < 1 µg/mL | 2 to 4 µg/mL (≈ 2.47 to 4.95 µM) | < 1 µg/mL | < 10 µM | < 10 µM | 2 to 4 µg/mL (≈ 2.47 to 4.95 µM) | < 1 µg/mL | < 1 µg/mL | < 1 µg/mL | – | – | – | –
O=C(O)c1c(F)ccc2c1OB(O)[C@@H](NC(=O)[C@H](NC(=O)N1CCN(C3CCN(C(=O)c4c(F)ccc(O)c4Cl)CC3)C1=O)c1cc(F)c(O)c(O)c1Cl)C2 (single isomer, unassigned) [Example 440] | < 1 µg/mL | < 1 µg/mL | < 1 µg/mL | < 1 µg/mL | < 10 µM | < 10 µM | < 1 µg/mL | < 1 µg/mL | < 1 µg/mL | < 1 µg/mL | – | – | – | –
O=C(O)c1c(F)ccc2c1OB(O)[C@@H](NC(=O)[C@H](NC(=O)N1CCN(C3CCN(C(=O)Nc4ccc(O)cc4)CC3)C(=O)C1=O)c1cc(F)c(O)c(O)c1Cl)C2 (single isomer, unassigned) [Example 426] | 8 to 16 µg/mL (≈ 9.99 to 20 µM) | < 1 µg/mL | 2 to 4 µg/mL (≈ 2.5 to 4.99 µM) | < 1 µg/mL | < 10 µM | < 10 µM | 2 to 4 µg/mL (≈ 2.5 to 4.99 µM) | < 1 µg/mL | < 1 µg/mL | < 1 µg/mL | – | – | – | –
O=C(O)c1c(F)ccc2c1OB(O)[C@@H](NC(=O)[C@H](NC(=O)N1CCN(C3CCN(C(=O)c4cc(O)cc(O)c4)CC3)C1=O)c1cc(F)c(O)c(O)c1Cl)C2 (single isomer, unassigned) [Example 442] | < 1 µg/mL | < 1 µg/mL | < 1 µg/mL | < 1 µg/mL | < 10 µM | < 10 µM | < 1 µg/mL | < 1 µg/mL | < 1 µg/mL | < 1 µg/mL | – | – | – | –
O=C(O)c1c(F)ccc2c1OB(O)[C@@H](NC(=O)[C@H](NC(=O)N1CCN(C3CCN(C(=O)c4cc(O)c(F)c(O)c4F)CC3)C1=O)c1cc(F)c(O)c(O)c1Cl)C2 (single isomer, unassigned) [Example 444] | < 1 µg/mL | < 1 µg/mL | < 1 µg/mL | < 1 µg/mL | < 10 µM | < 10 µM | < 1 µg/mL | < 1 µg/mL | < 1 µg/mL | < 1 µg/mL | – | – | – | –
O=C(O)c1c(F)ccc2c1OB(O)[C@@H](NC(=O)[C@H](NC(=O)N1CCN(C3CCN(C(=O)c4cc(O)cc(F)c4)CC3)C1=O)c1cc(F)c(O)c(O)c1Cl)C2 (single isomer, unassigned) [Example 436] | < 1 µg/mL | < 1 µg/mL | < 1 µg/mL | < 1 µg/mL | < 10 µM | < 10 µM | < 1 µg/mL | < 1 µg/mL | < 1 µg/mL | < 1 µg/mL | – | – | – | –
O=C(O)c1c(F)ccc2c1OB(O)[C@@H](NC(=O)[C@H](NC(=O)N1CCN(C3CCN(C(=O)Nc4ccc(F)c(O)c4)CC3)C1=O)c1cc(F)c(O)c(O)c1Cl)C2 (single isomer, unassigned) [Example 449] | < 1 µg/mL | < 1 µg/mL | < 1 µg/mL | < 1 µg/mL | < 10 µM | < 10 µM | < 1 µg/mL | < 1 µg/mL | < 1 µg/mL | < 1 µg/mL | – | – | – | –
O=C(NCCS(=O)(=O)N1CCN(C(=O)N[C@H](C(=O)N[C@H]2Cc3ccc(F)c(C(=O)O)c3OB2O)c2ccc(P(=O)(O)O)cc2)C1=O)c1ccc(O)c(O)c1Cl [Example 167, (R)-3-((S)-2-(3-((2-(2-chloro-3,4-dihydroxybenzamido)ethyl)sulfonyl)-2-oxoimidazolidine-1-carboxamido)-2-(4-phosphonophenyl)acetamido)-7-fluoro-2-hydroxy-3,4-dihydro-2H-benzo[e][1,2]oxaborinine-8-carboxylic acid] | > 128 µg/mL | > 128 µg/mL | > 128 µg/mL | > 128 µg/mL | 50 to 250 µM | 10 to 50 µM | > 128 µg/mL | > 128 µg/mL | 32 to 64 µg/mL (≈ 38.7 to 77.3 µM) | 32 to 64 µg/mL (≈ 38.7 to 77.3 µM) | – | – | – | –
O=C(O)c1c(F)ccc2c1OB(O)[C@@H](NC(=O)[C@H](NC(=O)N1CCN(C3CCN(C(=O)c4cc(O)ccc4F)CC3)C1=O)c1cc(F)c(O)c(O)c1Cl)C2 (single isomer, unassigned) [Example 433] | < 1 µg/mL | < 1 µg/mL | < 1 µg/mL | < 1 µg/mL | < 10 µM | < 10 µM | < 1 µg/mL | < 1 µg/mL | < 1 µg/mL | < 1 µg/mL | – | – | – | –
O=C(O)c1c(F)ccc2c1OB(O)[C@@H](NC(=O)C(NC(=O)N1CCN(C3CCN(C(=O)Nc4cc(O)ccc4F)CC3)C(=O)C1=O)c1cc(F)c(O)c(O)c1Cl)C2 (stereo partly drawn) [Example 479, (3R)-3-(2-(2-chloro-5-fluoro-3,4-dihydroxyphenyl)-2-(4-(1-((2-fluoro-5-hydroxyphenyl)carbamoyl)piperidin-4-yl)-2,3-dioxopiperazine-1-carboxamido)acetamido)-7-fluoro-2-hydroxy-3,4-dihydro-2H-benzo[e][1,2]oxaborinine-8-carboxylic acid] | < 1 µg/mL | < 1 µg/mL | < 1 µg/mL | < 1 µg/mL | < 10 µM | < 10 µM | 2 to 4 µg/mL (≈ 2.44 to 4.88 µM) | < 1 µg/mL | < 1 µg/mL | < 1 µg/mL | – | – | – | –
O=C(O)c1c(F)ccc2c1OB(O)[C@@H](NC(=O)C(NC(=O)N1CCN(C3CCN(C(=O)Nc4ccc(F)c(O)c4F)CC3)C1=O)c1cc(F)c(O)c(O)c1Cl)C2 (stereo partly drawn) [Example 452, (3R)-3-(2-(2-chloro-5-fluoro-3,4-dihydroxyphenyl)-2-(3-(1-((2,4-difluoro-3-hydroxyphenyl)carbamoyl)piperidin-4-yl)-2-oxoimidazolidine-1-carboxamido)acetamido)-7-fluoro-2-hydroxy-3,4-dihydro-2H-benzo[e][1,2]oxaborinine-8-carboxylic acid] | 2 to 4 µg/mL (≈ 2.47 to 4.95 µM) | < 1 µg/mL | 2 to 4 µg/mL (≈ 2.47 to 4.95 µM) | < 1 µg/mL | < 10 µM | < 10 µM | 2 to 4 µg/mL (≈ 2.47 to 4.95 µM) | – | < 1 µg/mL | < 1 µg/mL | – | – | – | –
O=C(O)c1c(F)ccc2c1OB(O)[C@@H](NC(=O)C(NC(=O)N1CCN(C3CCN(C(=O)Nc4cc(O)c(F)cc4Cl)CC3)C(=O)C1=O)c1cc(F)c(O)c(O)c1Cl)C2 (stereo partly drawn) [Example 490, (3R)-3-(2-(4-(1-((2-chloro-4-fluoro-5-hydroxyphenyl)carbamoyl)piperidin-4-yl)-2,3-dioxopiperazine-1-carboxamido)-2-(2-chloro-5-fluoro-3,4-dihydroxyphenyl)acetamido)-7-fluoro-2-hydroxy-3,4-dihydro-2H-benzo[e][1,2]oxaborinine-8-carboxylic acid] | – | – | 2 to 4 µg/mL (≈ 2.34 to 4.69 µM) | – | < 10 µM | < 10 µM | – | 32 to 64 µg/mL (≈ 37.5 to 75 µM) | < 1 µg/mL | – | 2 to 4 µg/mL (≈ 2.34 to 4.69 µM) | < 1 µg/mL | 2 to 4 µg/mL (≈ 2.34 to 4.69 µM) | < 1 µg/mL
